Measurements published in patent US20240368120A1 (Terns Pharmaceuticals, Inc., priority 2023, published 2024).

Tests used:
human GLP-1R receptor = target: T1, human GLP-1R receptor (Homo sapiens, UniProt P43220); assay: GLP-1R low expression cell assay (cAMP TR-FRET, CHO-K1_hGLP-1Rlow_clone10 cells); format: cell-based; details: for EC50: cAMP TR-FRET, 30 min at 25° C.; for Emax: maximum activation relative to control GLP-1 peptide agonist
T1 construct: expressed in transfected cells
Outline: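 CHO-K1 cells stably expressing low surface human GLP-1R (clone10), 1,000 cells/well, exposed to 10-point 3-fold compound dilutions for 30 min at 25 °C. cAMP measured by TR-FRET (Eu-cAMP tracer/ULight-anti-cAMP, 15 min). EC50 from Hill fit of duplicate percent activation relative to a parallel GLP-1 control agonist.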

[1] = Rat pharmacokinetics, oral dosing; format: in vivo, Sprague-Dawley rats; details: male, Sprague-Dawley, oral dosing at 3 mg/kg, plasma; for half-life: read-out: Rat T1/2
Experimental: Intravenous dosing: Compounds were formulated at 1.0 mg/mL in a solution comprising 5% polyethylene glycol 400 and 95% (12% (w/v) sulfobutyl-β-cyclodextrin in water) (v/v). Formulated compounds were sterile filtered through a 0.22 micron filter before dosing. Compounds were administered to male, 7-11-week-old Sprague-Dawley rats by jugular vein cannula infusion over 30 minutes at a dose of 1 mg/kg. Oral dosing: Compounds were formulated at 1.0 mg/mL in a solution comprising 5% polyethylene glycol 400 and 95% (12% (w/v) sulfobutyl-β-cyclodextrin in water) (v/v). Formulated compounds were administered to male, 7-11 week old Sprague-Dawley rats by oral gavage at a dose of 10 mg/kg or 3 mg/kg.
Sample collection: Blood collections of about 0.2 mL per time point were performed from jugular vein or other suitable site of each animal, into pre-chilled commercial EDTA-K2 tubes and placed on wet ice until centrifugation. Blood samples were processed for plasma by centrifugation at approximately 4° C., 3,200 g for 10 min. Plasma was collected and transferred into pre-labeled 96 well plate or polypropylene tubes, quick frozen over dry ice and kept at −60° C. or lower until
Data analysis: Plasma concentration versus time data was plotted in graph and analyzed by non-compartmental approaches using the Phoenix WinNonlin 6.3 software program. Related PK parameters were calculated according to dosing route, e.g., CL, Vdss and C0 for intravenous administration, Cmax, Tmax or % F for extravascular administration, and T1/2, AUC(0-t), AUC(0-inf), MRT(0-t), MRT(0-inf) for all routes.

T1 sequence (P43220 24-463): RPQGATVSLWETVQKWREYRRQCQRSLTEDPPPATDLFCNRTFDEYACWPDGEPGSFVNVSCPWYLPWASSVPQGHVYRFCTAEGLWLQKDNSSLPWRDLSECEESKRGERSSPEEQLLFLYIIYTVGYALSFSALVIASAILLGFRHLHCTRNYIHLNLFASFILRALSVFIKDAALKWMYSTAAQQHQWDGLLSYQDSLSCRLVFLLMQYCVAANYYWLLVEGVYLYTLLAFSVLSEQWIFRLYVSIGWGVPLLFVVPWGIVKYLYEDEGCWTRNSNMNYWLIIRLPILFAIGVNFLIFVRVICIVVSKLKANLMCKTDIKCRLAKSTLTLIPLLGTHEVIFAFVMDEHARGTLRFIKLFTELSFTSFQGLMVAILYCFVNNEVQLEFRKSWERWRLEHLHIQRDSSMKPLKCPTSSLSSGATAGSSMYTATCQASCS

Row | SMILES | EC50 (human GLP-1R receptor) [nM] | AUC [1] [ng·h/mL] | Cmax [1] [ng/mL] | half-life [1] [h] | bioavailability [1] [%] | Emax (human GLP-1R receptor) [%]
1 | Cn1c(CN2CCC(c3cccc4c3OC(c3ccc(Cl)cc3F)C=C4)CC2)nc2c(OC(F)F)cc(C(=O)O)cc21 (single isomer, unassigned) [Compound 176] | 100 to 1000 | 500 to 2500 | < 500 | < 1.5 | 25 to 50 | 
2 | C[C@@]1(c2ccc(Cl)cn2)Oc2cccc(C3CCN(Cc4nc5c(OC6CC6)cc(C(=O)O)cc5n4Cc4cncs4)CC3)c2O1 [Compound 7, (R)-2-((4-(2-(5-chloropyridin-2-yl)-2-methylbenzo[d][1,3]dioxol-4-yl)piperidin-1-yl)methyl)-4-cyclopropoxy-1-(thiazol-5-ylmethyl)-1H-benzo[d]imidazole-6-carboxylic acid] | 10 to 100 | < 500 | < 500 | ≥ 2.5 | < 25 | > 85
3 | CC(F)(F)c1cc(C(=O)O)cc2c1nc(CN1CCC(c3cccc4c3O[C@](C)(c3ccc(Cl)cn3)O4)CC1)n2C[C@@H]1CCO1 [Compound 71, 2-((4-((R)-2-(5-Chloropyridin-2-yl)-2-methylbenzo[d][1,3]dioxol-4-yl)piperidin-1-yl)methyl)-4-(1,1-difluoroethyl)-1-(((S)-oxetan-2-yl)methyl)-1H-benzo[d]imidazole-6-carboxylic acid] | 10 to 100 | 500 to 2500 | 500 to 1000 | < 1.5 | 25 to 50 | > 85
4 | COc1cc(-c2cc(=O)[nH]o2)cc2c1nc(CN1CCC(c3cccc(OCc4ccc(Cl)cc4F)n3)CC1)n2C[C@@H]1CCO1 [Compound 382, (S)-5-(2-((4-(6-((4-Chloro-2-fluorobenzyl)oxy)pyridin-2-yl)piperidin-1-yl)methyl)-4-methoxy-1-(oxetan-2-ylmethyl)-1H-benzo[d]imidazol-6-yl) isoxazol-3 (2H)-one] | < 10 |  |  |  |  | 50 to 85
5 | COc1cc(C(=O)O)cc2c1nc(CN1CCN(c3cccc(OCc4ccc(Cl)cc4F)n3)CC1)n2C [Compound 383, 2-((4-(6-((4-Chloro-2-fluorobenzyl)oxy)pyridin-2-yl)piperazin-1-yl)methyl)-4-methoxy-1-methyl-1H-benzo[d]imidazole-6-carboxylic acid] | 10 to 100 |  |  |  |  | > 85
6 | CCOc1cc(-c2cc(=O)[nH]o2)cc2c1nc(CN1CCC(c3cccc(OCc4ccc(C#N)cc4F)n3)CC1)n2C [Compound 384, 4-(((6-(1-((4-Ethoxy-1-methyl-6-(3-oxo-2,3-dihydroisoxazol-5-yl)-1H-benzo[d]imidazol-2-yl)methyl)piperidin-4-yl)pyridin-2-yl)oxy)methyl)-3-fluorobenzonitrile] | 10 to 100 |  |  |  |  | > 85
7 | CC(F)(F)c1cc(C(=O)O)cc2c1nc(CN1CCC(c3cccc4c3O[C@@](C)(c3ccc(Cl)cn3)O4)CC1)n2C[C@@H]1CCO1 [Compound 386, 2-((4-((S)-2-(5-Chloropyridin-2-yl)-2-methylbenzo[d][1,3]dioxol-4-yl)piperidin-1-yl)methyl)-4-(1,1-difluoroethyl)-1-(((S)-oxetan-2-yl)methyl)-1H-benzo[d]imidazole-6-carboxylic acid] | 10 to 100 |  |  |  |  | > 85
8 | COc1cc(C(=O)O)cc2c1nc(CN1CC[C@@H](c3cccc(OCc4ccc(C#N)cc4F)n3)[C@@H]3C[C@@H]31)n2C[C@@H]1CCO1 [Compound 387, 2-(((1S,5R,6S)-5-(6-((4-cyano-2-fluorobenzyl)oxy)pyridin-2-yl)-2-azabicyclo[4.1.0]heptan-2-yl)methyl)-4-methoxy-1-(((S)-oxetan-2-yl)methyl)-1H-benzo[d]imidazole-6-carboxylic acid] | < 10 |  |  |  |  | 

Results, then the compound that gave them:

Row | EC50 (human GLP-1R receptor) [nM] | AUC [1] [ng·h/mL] | Cmax [1] [ng/mL] | half-life [1] [h] | bioavailability [1] [%] | Emax (human GLP-1R receptor) [%] | SMILES
9 | < 10 | < 500 | < 500 | 1.5 to 2.5 | 25 to 50 | > 85 | C[C@]1(c2ccc(Cl)cn2)Oc2cccc(C3CCN(Cc4nc5c(OC6CC6)cc(C(=O)O)cc5n4Cc4cncs4)CC3)c2O1 [Compound 6, (S)-2-((4-(2-(5-chloropyridin-2-yl)-2-methylbenzo[d][1,3]dioxol-4-yl)piperidin-1-yl)methyl)-4-cyclopropoxy-1-(thiazol-5-ylmethyl)-1H-benzo[d]imidazole-6-carboxylic acid]
10 | < 10 | < 500 | < 500 | < 1.5 | < 25 | > 85 | C[C@]1(c2ccc(Cl)cn2)Oc2cccc(C3CCN(Cc4nc5c(OC6COC6)cc(C(=O)O)cc5n4C[C@@H]4CCO4)CC3)c2O1 [Compound 72, 2-((4-((S)-2-(5-Chloropyridin-2-yl)-2-methylbenzo[d][1,3]dioxol-4-yl)piperidin-1-yl)methyl)-1-(((S)-oxetan-2-yl)methyl)-4-(oxetan-3-yloxy)-1H-benzo[d]imidazole-6-carboxylic acid]
11 | < 10 | < 500 | < 500 | < 1.5 | < 25 | > 85 | CC(C)Oc1cc(C(=O)O)cc2c1nc(CN1CCC(c3cccc(OCc4ccc(C#N)cc4F)n3)CC1)n2Cc1cncs1 [Compound 73, 2-((4-(6-((4-Cyano-2-fluorobenzyl)oxy)pyridin-2-yl)piperidin-1-yl)methyl)-4-isopropoxy-1-(thiazol-5-ylmethyl)-1H-benzo[d]imidazole-6-carboxylic acid]
12 | < 10 | < 500 | < 500 |  | < 25 | > 85 | C[C@]1(c2ccc(Cl)cn2)Oc2cccc(C3CCN(Cc4nc5c(OCC6COC6)cc(C(=O)O)cc5n4C[C@@H]4CCO4)CC3)c2O1 [Compound 77, 2-((4-((S)-2-(5-chloropyridin-2-yl)-2-methylbenzo[d][1,3]dioxol-4-yl)piperidin-1-yl)methyl)-1-(((S)-oxetan-2-yl)methyl)-4-(oxetan-3-ylmethoxy)-1H-benzo[d]imidazole-6-carboxylic acid]
13 | < 10 | < 500 | < 500 | 1.5 to 2.5 | 25 to 50 | > 85 | C[C@]1(c2ccc(Cl)cn2)Oc2cccc(C3CCN(Cc4nc5c(OC(F)F)cc(C(=O)O)cc5n4C[C@@H]4CCO4)CC3)c2O1 [Compound 78, 2-((4-((S)-2-(5-Chloropyridin-2-yl)-2-methylbenzo[d][1,3]dioxol-4-yl)piperidin-1-yl)methyl)-4-(difluoromethoxy)-1-(((S)-oxetan-2-yl)methyl)-1H-benzo[d]imidazole-6-carboxylic acid]
14 | < 10 | < 500 | < 500 | ≥ 2.5 | < 25 | > 85 | COc1cc(C(=O)O)cc2c1nc(N(C)[C@H]1CC[C@H](c3cccc4c3O[C@@](C)(c3ccc(Cl)cn3)O4)CC1)n2C[C@@H]1CCO1 [Compound 80, 2-(((1S,4S)-4-((S)-2-(5-Chloropyridin-2-yl)-2-methylbenzo[d][1,3]dioxol-4-yl)cyclohexyl)(methyl)amino)-4-methoxy-1-(((S)-oxetan-2-yl)methyl)-1H-benzo[d]imidazole-6-carboxylic acid]
15 | < 10 | < 500 | < 500 | ≥ 2.5 | < 25 | > 85 | C[C@]1(c2ccc(Cl)cn2)Oc2cccc(C3CCN(Cc4nc5c(OCCF)cc(C(=O)O)cc5n4C[C@@H]4CCO4)CC3)c2O1 [Compound 81, 2-((4-((S)-2-(5-Chloropyridin-2-yl)-2-methylbenzo[d][1,3]dioxol-4-yl)piperidin-1-yl)methyl)-4-(2-fluoroethoxy)-1-(((S)-oxetan-2-yl)methyl)-1H-benzo[d]imidazole-6-carboxylic acid]
16 | < 10 | 2500 to 10000 | 2000 to 5000 | ≥ 2.5 | > 85 | > 85 | Cn1c(CN2CCC(c3cccc4c3O[C@@](C)(c3ccc(Cl)cn3)O4)CC2)nc2c(OC(F)F)cc(C(=O)O)cc21 [Compound 83, (S)-2-((4-(2-(5-Chloropyridin-2-yl)-2-methylbenzo[d][1,3]dioxol-4-yl)piperidin-1-yl)methyl)-4-(difluoromethoxy)-1-methyl-1H-benzo[d]imidazole-6-carboxylic acid]
17 | < 10 | 2500 to 10000 | 1000 to 2000 | 1.5 to 2.5 | 25 to 50 | > 85 | COc1cc(C(=O)O)cc2c1nc(CN1CCC(c3cccc4c3O[C@@](C)(c3ccc(Cl)cn3)O4)CC1)n2C [Compound 85, (S)-2-((4-(2-(5-Chloropyridin-2-yl)-2-methylbenzo[d][1,3]dioxol-4-yl)piperidin-1-yl)methyl)-4-methoxy-1-methyl-1H-benzo[d]imidazole-6-carboxylic acid]
